Results as given in patent US20220146526A1, “METHOD FOR EVALUATING SAMPLE, ANALYSIS METHOD, METHOD FOR DETECTING DEGRADED SAMPLE, MARKER FOR DETECTING DEGRADED BLOOD PLASMA SAMPLE, AND MARKER FOR DETECTING DEGRADED SERUM SAMPLE” (SHIMADZU CORPORATION, priority 2019, published 2022).

How the values were obtained:
Assay type in all cases: physicochemical, human
[1] = LC/MS of serum sample: number of times of freezing and thawing (Table M); parameters: key to Rate of increase or decrease: detection intensity relative to 1 at 2 freeze-thaw cycles; conditions: for Rate of increase or decrease: 4 times of freezing and thawing, detection intensity relative to 1 at 2 times; for Number of times when compound is affected / Increase or decrease: serum sample, LC/MS; for Number of times when compound is affected: detection intensity changed by 30% or more vs 2 times of freezing and thawing; for Increase or decrease: detection intensity vs 2 times of freezing and thawing
In short: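 Values are detection intensities relative to serum thawed twice, versus 4, 6 or 10 freeze-thaw cycles. Serum came from blood spun at room temperature, 3500 rpm for 5 minutes. Analysis: electrospray LC/MS in MRM mode, Discovery HS F5-3 column, 40° C, 0.1% formic acid in water and acetonitrile.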

[2] = LC/MS of serum sample: time from centrifugation to isolation (Table K); parameters: key to Rate of increase or decrease: detection intensity relative to the 30-minute value set as 1; conditions: for Increase or decrease / Time when compound is affected: serum sample, LC/MS; for Increase or decrease: detection intensity vs 30 minutes from centrifugation to isolation; for Time when compound is affected: time from centrifugation to isolation, detection intensity changed by 30% or more vs 30 minutes
Method: (§1) After standing, the blood sample was subjected to centrifugation under a condition of room temperature, 3500 rpm, and 5 minutes. […] After centrifugation, the blood-collecting vessel was left to stand at room temperature, and the serum was isolated during this time. Here, in order to investigate how the detection intensity of molecules contained in the sample was affected in cases where the time during which the blood-collecting vessel was left at room temperature was set to 1 hour and 6 hours as compared to that in a case where the time was set to 30 minutes, preparations were performed under the respective conditions of 30 minutes, 1 hour, and 6 hours. The obtained serum sample was frozen and stored. Here, in order to investigate how the detection intensity of molecules contained in the sample was affected in cases where freezing and thawing was performed 4 times, 6 times, and 10 times after freezing as compared to that in a case where freezing and thawing was performed 2 times after freezing, freezing and thawing was performed under the respective conditions of 2, 4, 6, and 10 times.
(§2) Frozen blood plasma samples and serum samples were subjected to GC/MS or LC/MS. In GC/MS, the blood plasma samples and serum samples were subjected to methoxymation and trimethylsilylation and then introduced to GC-MS.
(§3) Analysis column: Discovery HS F5-3 (inner diameter of 2.1 mm, length of 150 mm, film thickness of 3 μm) (Sigma-Aldrich)
(§4) Column temperature: 40° C.
(§5) (A) 0.1% formic acid (dissolved in water)
(§6) (B) 0.1% formic acid (dissolved in acetonitrile)
(§7) Flow velocity: 0.25 mL/min
(§8) Ionization method: electrospray
(§9) Temperature: • Desolvation Line (DL) temperature: 250° C. • Heat block temperature: 400° C. • Interface temperature: 300° C.
(§10) Gas flow rate: • Nebulizer gas flow rate: 3.0 L/min • Drying gas flow rate: 10.0 L/min • Heating gas flow rate: 10.0 L/min
(§11) Mode: multiple reaction monitoring (MRM)
The rate of increase or decrease in Table K is the value of detection intensity relative to 1 that is the detection intensity in a case where the time from centrifugation to isolation is set to 30 minutes.

[3] = LC/MS of serum sample: time from blood collection to centrifugation (Table J); conditions: for Increase or decrease / Time when compound is affected: serum sample, LC/MS; for Increase or decrease: detection intensity vs 15 minutes from blood collection to centrifugation; for Time when compound is affected: time from blood collection to centrifugation, detection intensity changed by 30% or more vs 15 minutes
Method: as §1, §2, §3, §4, §5, §6, §7, §8, §9, §10, §11
The rate of increase or decrease in Table J is the value of detection intensity relative to 1 that is the detection intensity in a case where the time from blood collection to centrifugation is set to 15 minutes.

[4] = LC/MS of blood plasma sample: number of times of freezing and thawing (Table F); conditions: for Rate of increase or decrease: detection intensity relative to 1 at 2 times; for Increase or decrease: detection intensity
Method: At room temperature, 5 mL of blood from a healthy subject was taken into a blood-collecting vessel containing EDTA, and the blood-collecting vessel was inverted for mixing, then cooled, and allowed to stand at 4° C. Here, in order to investigate how the detection intensity of molecules contained in the sample was affected in a case where the time to cooling was set to 5 minutes or more as compared to that in a case where the time to cooling was set to 1 minute or less, preparations were performed under both the former condition and the latter condition. After standing, the blood sample was subjected to centrifugation under a condition of 4° C., 3000 rpm, and 15 minutes. […] After centrifugation, the blood-collecting vessel was left to stand at room temperature for 30 minutes, and the blood plasma was isolated during this 30 minutes. The obtained blood plasma sample was frozen and stored. Here, in order to investigate how the detection intensity of molecules contained in the sample was affected in cases where freezing and thawing was performed 4 times, 6 times, and 10 times after freezing as compared to that in a case where freezing and thawing was performed 2 times after freezing, freezing and thawing was performed under the respective conditions of 2, 4, 6, and 10 times.
as §2, §3, §4, §5, §6, §7, §8, §9, §10, §11
The rate of increase or decrease in Table F is the value of detection intensity relative to 1 that is the detection intensity in a case where the number of times of freezing and thawing is set to 2 times.

[5] = LC/MS of blood plasma sample: time from blood collection to centrifugation (Table D); conditions: for Increase or decrease: detection intensity, after 12 hours vs 15 minutes; for Rate of increase or decrease (second value, decrease) / Rate of increase or decrease (first value, increase): different from individual to individual, relative to 1 at 15 minutes, collection to centrifugation; for Rate of increase or decrease (second value, decrease): individuals with decrease; for Rate of increase or decrease (first value, increase): individuals with increase
In short: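 Detection intensities are expressed relative to samples centrifuged 15 min after collection (=1), measured by electrospray LC/MS in MRM mode (Discovery HS F5-3, 40 °C, formic acid water/acetonitrile gradient at 0.25 mL/min). EDTA blood from a healthy donor was held at 4 °C, centrifuged at 4 °C, 3000 rpm, 15 min, and plasma frozen.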

[6] = GC/MS of blood plasma sample: number of times of freezing and thawing (Table C)
In short: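 Values express detection intensity as a ratio to the 2-cycle freeze-thaw sample (=1), compared with 4, 6 and 10 cycles. Healthy-donor EDTA plasma, cooled at ≤1 min or ≥5 min, spun at 4 °C, 3000 rpm, 15 min. Derivatised by methoxymation/trimethylsilylation; GC-MS/MS in MRM mode with electron ionization.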

[7] = GC/MS of blood plasma sample: time from blood collection to cooling of blood (Table B); parameters: key to Rate of increase or decrease / Rate of increase or decrease (first value, increase): detection intensity relative to 1 at cooling time ≤1 min
In short: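 Blood drawn at room temperature into EDTA tubes, mixed, then cooled at 4° C. within 1 minute or less versus 5 minutes or more before centrifugation (4° C., 3000 rpm, 15 minutes). Plasma was frozen, methoxymated and trimethylsilylated, and analysed by EI GC/MS in MRM mode. Values are detection intensity relative to the ≤1 minute condition.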

[8] = GC/MS of blood plasma sample: time from blood collection to centrifugation (Table A)
In short: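 Read-out is MRM detection intensity by electron-ionization GC/MS on a BPX5 column after methoxymation and trimethylsilylation, expressed relative to a 15-minute collection-to-centrifugation interval. Plasma was prepared from EDTA blood held at 4° C and spun at 4° C, 3000 rpm for 15 minutes, then frozen.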

[9] = after 1 hour, relative to 1 at 30 minutes, different from individual to individual, second value (decrease)
[10] = after 4 hours from blood collection to centrifugation, detection intensity relative to 1 at 15 minutes
[11] = blood collection to centrifugation

SMILES | Rate of increase or decrease [1] | Number of times when compound is affected [1] [times] | Increase or decrease [1] | Rate of increase or decrease [2, 9] | Increase or decrease [2] | Time when compound is affected [2] | Rate of increase or decrease [3, 10] | Increase or decrease [3] | Time when compound is affected [3] | Increase or decrease [5, 11] | Rate of increase or decrease (second value, decrease) ([5]; after 12 hours) | Rate of increase or decrease (first value, increase) ([5]; after 12 hours) | also measured
NCCC(=O)N[C@@H](Cc1cnc[nH]1)C(=O)O [Carnosine, carnosine] | 0.59 | 4 | Decrease | 0.56 | Different from individual | After 1 hour hours | 2.83 | Increase | After 4 hours |  |  |  | Rate of increase or decrease ([2]; after 1 hour, relative to 1 at 30 minutes, different from individual to individual, first value (increase)): 1.41
N[C@@H](CSSC[C@H](N)C(=O)O)C(=O)O [Cystine] | 1.56 | 4 | Increase |  | Decrease | After 1 hour hours |  |  |  | Decrease |  |  | Rate of increase or decrease ([2]; after 1 hour from centrifugation to isolation, detection intensity relative to 1 at 30 minutes): 0.67; Rate of increase or decrease ([4]; freezing and thawing 10 times): 0.54; Increase or decrease ([4]; freezing and thawing 10 times vs 2 times): Decrease; Rate of increase or decrease ([5]; detection intensity relative to 1 at 15 minutes, blood collection to centrifugation, after 12 hours): 0.45
Nc1nc2c(ncn2[C@@H]2O[C@@H]3COP(=O)(O)O[C@H]3[C@H]2O)c(=O)[nH]1 [Guanosine 3′,5′-cyclic monophosphate, guanosine 3′,5′-cyclic monophosphate] | 1.47 | 4 | Increase | 0.46 | Different from individual | After 1 hour hours |  | Different from individual | After 4 hours |  |  |  | Rate of increase or decrease ([3]; after 4 hours, relative to 1 at 15 minutes, different from individual to individual, first value (increase)): 3.62; Rate of increase or decrease ([3]; after 4 hours, relative to 1 at 15 minutes, different from individual to individual, second value (decrease)): 0.58
C[S+]([O-])CC[C@H](N)C(=O)O (stereo partly shown) [Methionine sulfoxide] | 1.55 | 4 | Increase |  | Increase | After 6 hours |  | Increase | After 6 hours | Different from individual | 0.54 | 1.36 | Rate of increase or decrease ([2]; after 6 hours from centrifugation to isolation, detection intensity relative to 1 at 30 minutes): 1.77; Rate of increase or decrease ([3]; after 6 hours from blood collection to centrifugation, detection intensity relative to 1 at 15 minutes): 1.65
O=c1ccn([C@@H]2O[C@H](CO)[C@@H](O)[C@H]2O)c(=O)[nH]1 [Uridine] | 0.68 | 4 | Decrease |  |  |  | 1.42 | Increase | After 4 hours | Different from individual | 0.60 | 1.67 | Rate of increase or decrease ([6]; detection intensity relative to 1 at 2 times, freezing and thawing 6 times): 0.69; Increase or decrease ([6]; detection intensity, freezing and thawing 6 times vs 2 times): Decrease; Rate of increase or decrease ([4]; freezing and thawing 6 times): 1.31; Increase or decrease ([4]; freezing and thawing 6 times vs 2 times): Increase; Increase or decrease ([7]; detection intensity, blood collection to cooling 5 minutes or more vs 1 minute or less): Different from individual; Rate of increase or decrease (second value, decrease) ([7]; different from individual to individual, individuals with decrease, relative to 1 at 1 minute or less, collection to cooling 5 minutes): 0.64; Rate of increase or decrease (first value, increase) ([7]; different from individual to individual, individuals with increase, relative to 1 at 1 minute or less, collection to cooling 5 minutes): 2.62; Increase or decrease ([8]; detection intensity, blood collection to centrifugation, after 4 hours vs 15 minutes): Different from individual; Rate of increase or decrease (second value, decrease) ([8]; different from individual to individual, individuals with decrease, relative to 1 at 15 minutes, collection to centrifugation, after 4 hours): 0.48; Rate of increase or decrease (first value, increase) ([8]; different from individual to individual, individuals with increase, relative to 1 at 15 minutes, collection to centrifugation, after 4 hours): 1.48
